Results reported in ChEMBL document CHEMBL5512667, “Discovery of Potent, Selective, and Orally Available IRE1α Inhibitors Demonstrating Comparable PD Modulation to IRE1 Knockdown in a Multiple Myeloma Model” (J Med Chem, 2024).
In brackets after ≈: the same amount, converted by molar mass. Blank lines part the entries; values can stand above or below the molecule they belong to. Activity calls are given as the source filed them. No cut-off for these calls is given here.

How the values were obtained:
[1] = target: T1, Serine/threonine-protein kinase/endoribonuclease IRE1 (Homo sapiens, UniProt O75460); assay: Inhibition of IRE1alpha RNase activity (unknown origin) using XBP1 as substrate preincubated for 1 hr followed by thapsigargin stimulation for 5 hrs by One-Glo luciferase reagent based luminescence assay
Target sequence in this assay (O75460 whole entry, the tested form may be a part): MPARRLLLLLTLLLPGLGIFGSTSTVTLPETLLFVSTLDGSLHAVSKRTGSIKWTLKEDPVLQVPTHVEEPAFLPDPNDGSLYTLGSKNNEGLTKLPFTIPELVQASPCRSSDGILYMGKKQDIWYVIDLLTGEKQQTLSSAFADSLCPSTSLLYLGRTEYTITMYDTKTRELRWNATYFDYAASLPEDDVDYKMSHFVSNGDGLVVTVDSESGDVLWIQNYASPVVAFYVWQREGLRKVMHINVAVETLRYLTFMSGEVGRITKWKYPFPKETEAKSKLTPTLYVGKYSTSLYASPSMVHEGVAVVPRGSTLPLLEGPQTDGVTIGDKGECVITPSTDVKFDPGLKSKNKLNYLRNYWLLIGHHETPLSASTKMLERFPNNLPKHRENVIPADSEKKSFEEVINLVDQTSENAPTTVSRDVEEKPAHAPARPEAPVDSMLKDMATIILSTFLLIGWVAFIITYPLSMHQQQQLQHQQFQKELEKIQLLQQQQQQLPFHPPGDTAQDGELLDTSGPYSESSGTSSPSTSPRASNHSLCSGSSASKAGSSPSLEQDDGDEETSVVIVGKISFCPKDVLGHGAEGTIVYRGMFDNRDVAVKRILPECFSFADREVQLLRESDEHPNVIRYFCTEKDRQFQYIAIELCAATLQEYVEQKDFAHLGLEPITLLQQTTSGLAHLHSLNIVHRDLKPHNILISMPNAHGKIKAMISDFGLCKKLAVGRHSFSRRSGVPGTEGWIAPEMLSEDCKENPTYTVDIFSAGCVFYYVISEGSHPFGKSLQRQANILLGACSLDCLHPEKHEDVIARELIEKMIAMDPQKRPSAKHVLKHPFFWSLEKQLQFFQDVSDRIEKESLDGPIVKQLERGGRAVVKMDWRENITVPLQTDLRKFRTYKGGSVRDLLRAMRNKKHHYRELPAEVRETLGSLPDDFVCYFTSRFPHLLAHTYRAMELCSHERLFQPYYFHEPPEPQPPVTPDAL

[2] = target: T1, Serine/threonine-protein kinase/endoribonuclease IRE1; assay: Inhibition of IRE1alpha RNase activity (Q470 to L977 residues) (unknown origin) expressed in Sf9 cells using mini-XBP-1 stem-loop RNA as substrate measured every 2 mins interval for 50 mins by FRET assay
Target sequence in this assay (O75460 whole entry, the tested form may be a part): as above

[3] = target: T1, Serine/threonine-protein kinase/endoribonuclease IRE1; assay: Inhibition of His-tagged IRE1alpha (G547 to L977 residues) (unknown origin) expressed in Sf9 cells preincubated with anti-His Europium labeled antibody for 1 hr prior to compound addition followed by tracer 236 addition and measured after 1 hr by TR-FRET assay
Target sequence in this assay (O75460 whole entry, the tested form may be a part): as above

[4] = Apparent permeability across apical to basolateral side in MDCK cells at 10 uM incubated for 3 hrs by LC-MS/MS method; format: ADME, cell-based, Canis lupus familiaris; details: dog
[5] = Selectivity ratio of inhibition of HIPK4 (unknown origin) to inhibition of IRE1alpha (unknown origin)
[6] = Toxicity in Sprague-Dawley rat assessed as hepatocellular hypertrophy at >= 150 mg/kg, po administered twice daily for 7 days; format: organism-based; details: in vivo, 168 h, time 7 day
[7] = Toxicity in Sprague-Dawley rat assessed as increase in hepatic weight at >= 150 mg/kg, po administered twice daily for 7 days; format: organism-based; details: in vivo, 168 h, time 7 day
[8] = Toxicity in Sprague-Dawley rat assessed as increase in hepatic enzyme level at 500 mg/kg, po administered twice daily for 7 days; format: organism-based; details: in vivo, 168 h, time 7 day
[9] = Toxicity in Sprague-Dawley rat assessed as tolerability upto 500 mg/kg, po administered twice daily for 7 days; format: organism-based; details: in vivo, 168 h, time 7 day
[10] = Plasma protein binding in mouse incubated for 4 hrs by LC-MS/MS based rapid equilibrium dialysis method; format: ADME, cell-free; details: read-out: PPB (converted)
[11] = Kinetic solubility of compound at pH 7.4; format: physicochemical; details: buffer, read-out: Kinetic_solubility
[12] = Volume of distribution at steady state in CD-1 mouse at 10 mg/kg, po or 1 mg/kg, iv measured upto 24 hrs by LC-MS/MS analysis; format: ADME, organism-based; details: in vivo
[13] = Half-life in CD-1 mouse at 10 mg/kg, po or 1 mg/kg, iv measured upto 24 hrs by LC-MS/MS analysis; format: ADME, organism-based; details: in vivo
[14] = Bioavailability in CD-1 mouse at 10 mg/kg, po or 1 mg/kg, iv measured upto 24 hrs by LC-MS/MS analysis; format: ADME, organism-based; details: in vivo
[15] = Toxicity in Sprague-Dawley rat assessed as decrease in thymus weight at 500 mg/kg, po administered twice daily for 7 days; format: organism-based; details: in vivo, 168 h, time 7 day
[16] = Toxicity in Sprague-Dawley rat assessed as decrease in thymic lymphoid depletion at 500 mg/kg, po administered twice daily for 7 days; format: organism-based; details: in vivo, 168 h, time 7 day
[17] = Cmax in Sprague-Dawley rat at 500 mg/kg, po administered twice daily for 7 days; format: ADME, organism-based; details: in vivo, time 7 day
[18] = AUC in Sprague-Dawley rat at 500 mg/kg, po administered twice daily for 7 days; format: ADME, organism-based; details: in vivo, time 7 day
[19] = Cmax in Sprague-Dawley rat at >= 150 mg/kg, po administered twice daily for 7 days; format: ADME, organism-based; details: in vivo, time 7 day
[20] = AUC in Sprague-Dawley rat at >= 150 mg/kg, po administered twice daily for 7 days; format: ADME, organism-based; details: in vivo, time 7 day
[21] = target: T1, Serine/threonine-protein kinase/endoribonuclease IRE1; assay: Inhibition of IRE1alpha in human KMS-11 cells assessed as reduction in XBP1 splicing preincubated for 24 hrs followed by thapsigargin addition and measured after 30 mins by luminescence assay; format: cell-based
[22] = target: T1, Serine/threonine-protein kinase/endoribonuclease IRE1; assay: Inhibition of IRE1alpha in human KMS-11 cells assessed as reduction in XBP1 splicing preincubated for 24 hrs followed by thapsigargin addition and measured after 30 mins under FCS medium by luminescence assay; format: cell-based
[23] = target: T1, Serine/threonine-protein kinase/endoribonuclease IRE1; assay: Inhibition of IRE1alpha RNase activity (unknown origin) using XBP1 as substrate preincubated for 1 hr followed by thapsigargin stimulation for 5 hrs under FCS medium by One-Glo luciferase reagent based luminescence assay
Target sequence in this assay (O75460 whole entry, the tested form may be a part): as above

[24] = system: Mus musculus; assay: In vivo inhibition of IRE1alpha in SCID mouse xenografted with human KMS-11 cells assessed as suppression of XBP1 level in tumor at 250 mg/kg, po BID measured upto 12 hrs; format: functional, organism-based
[25] = system: Mus musculus; assay: In vivo inhibition of IRE1alpha in SCID mouse xenografted with human KMS-11 cells assessed as suppression of XBP1 level in tumor at 250 mg/kg, po BID measured after 16 to 24 hrs; format: functional, organism-based; details: time 16-24 hrs
[26] = Permeability across apical to basolateral side in MDCK cells; format: ADME, cell-based, Canis lupus familiaris; details: dog, read-out: permeability

IC50 [1]: 32000 nM
IC50 [2]: > 10000 nM
IC50 [3]: > 1000 nM
Structure (SMILES): Cc1ccc2c(NS(=O)(=O)c3ccccc3Cl)cccc2c1Oc1ncccc1-c1ccnc(N)n1

Papp A→B at 3 h, 10 µM [4]: 8.7 ×10⁻⁶ cm/s
Selectivity ratio [5]: 83
IC50 [1]: 32 nM
IC50 [2]: 4.3 nM
IC50 [3]: 0.27 nM
fraction unbound at 4 h [10]: 0.029
solubility kinetic [11]: 65 µM (≈ 38.3 µg/mL)
Vdss [12]: 1.05 L/kg
half-life [13]: 33 min
bioavailability [14]: 149%
Cmax [17]: 104 µg/mL
AUC at 168 h [18]: 909 µg·h/mL
Cmax [19]: 28.9 µg/mL
AUC at 168 h [20]: 170 µg·h/mL
IC50 [21]: 64 nM
IC90 ([21]; time 24.5 hrs): 650 nM
IC50 [22]: 8 nM
IC90 ([22]; time 24.5 hrs): 79 nM
IC50 [23]: 4 nM
Structure (SMILES): O=S(=O)(Cc1ccccc1)Nc1c(F)cc(Oc2ncccc2-c2ccnc(N[C@@H]3CNC[C@@H](F)C3)n2)c(F)c1F
Activity [6]: Toxic
Activity [7]: Toxic
Activity [8]: Toxic
Activity [9]: Non-Toxic
Activity [15]: Toxic
Activity [16]: Toxic
inhibition [24]: Active
inhibition [25]: inactive

IC50 [1]: 2300 nM
IC50 [2]: 250 nM
IC50 [3]: 17 nM
Structure (SMILES): Cc1ccc2c(NS(=O)(=O)c3ccccc3Cl)cccc2c1Oc1ncccc1-c1ccnc(N[C@@H]2CNCC(F)(F)C2)n1

IC50 [1]: 42 nM
IC50 [2]: 3.3 nM
IC50 [3]: 0.66 nM
Structure (SMILES): Cc1ccc2c(Oc3ncccc3-c3ccnc(N[C@H]4CCCNC4)n3)c(C)ccc2c1NS(=O)(=O)CCC(F)(F)F

IC50 [1]: 1300 nM
IC50 [2]: 24 nM
IC50 [3]: 2.1 nM
Structure (SMILES): Cc1ccc2c(NS(=O)(=O)CC3CCCCC3)cccc2c1Oc1ncccc1-c1ccnc(N[C@H]2CCCNC2)n1

IC50 [1]: 40 nM
IC50 [2]: 9.2 nM
IC50 [3]: 0.48 nM
Papp A→B [26]: 1 ×10⁻⁶ cm/s
Structure (SMILES): Cc1ccc2c(NS(=O)(=O)c3ccccc3Cl)cccc2c1Oc1ncccc1-c1ccnc(N[C@H]2CCCNC2)n1

Papp A→B at 3 h, 10 µM [4]: 1.1 ×10⁻⁶ cm/s
IC50 [1]: 37 nM
IC50 [2]: 29 nM
IC50 [3]: 0.29 nM
Structure (SMILES): Cc1c(Oc2ncccc2-c2ccnc(N[C@H]3CCCNC3)n2)cc(F)c(NS(=O)(=O)Cc2ccccc2)c1F

IC50 [1]: 31 nM
IC50 [2]: 5.4 nM
IC50 [3]: 0.38 nM
Structure (SMILES): Cc1cc(NS(=O)(=O)Cc2ccccc2)c2ccccc2c1Oc1ncccc1-c1ccnc(N[C@H]2CCCNC2)n1

Papp A→B at 3 h, 10 µM [4]: 2.6 ×10⁻⁶ cm/s
IC50 [1]: 32 nM
IC50 [2]: 5.2 nM
IC50 [3]: 0.26 nM
fraction unbound at 4 h [10]: 0.029
solubility kinetic [11]: 28 µM (≈ 16.9 µg/mL)
Vdss [12]: 3.51 L/kg
half-life [13]: 45 min
bioavailability [14]: 36%
Structure (SMILES): O=S(=O)(Cc1ccccc1)Nc1c(F)cc(Oc2ncccc2-c2ccnc(N[C@@H]3CNC[C@H](CF)C3)n2)c(F)c1F

IC50 [1]: 540 nM
IC50 [2]: 15 nM
IC50 [3]: 0.78 nM
Structure (SMILES): O=S(=O)(Cc1ccccc1)Nc1c(F)cc(Oc2ncccc2-c2ccnc(N[C@@H]3CNC[C@@H](CF)C3)n2)c(F)c1F

IC50 [1]: 140 nM
IC50 [2]: 6.3 nM
IC50 [3]: 4.7 nM
Structure (SMILES): CCCS(=O)(=O)Nc1cccc2c(Oc3ncccc3-c3ccnc(N[C@H]4CCCNC4)n3)c(C)ccc12

Papp A→B at 3 h, 10 µM [4]: 2 ×10⁻⁶ cm/s
IC50 [1]: 330 nM
IC50 [2]: 24 nM
IC50 [3]: 1.8 nM
Structure (SMILES): Cc1c(Oc2ncccc2-c2ccnc(N[C@H]3CCCNC3)n2)ccc(NS(=O)(=O)Cc2ccccc2)c1F

Papp A→B at 3 h, 10 µM [4]: 1.4 ×10⁻⁶ cm/s
IC50 [1]: 47 nM
IC50 [2]: 4.5 nM
IC50 [3]: 3.1 nM
Structure (SMILES): O=S(=O)(Cc1ccccc1)Nc1c(F)cc(Oc2ncccc2-c2ccnc(N[C@H]3CCCNC3)n2)c(F)c1F

IC50 [1]: 28000 nM
IC50 [2]: > 10000 nM
IC50 [3]: > 1000 nM
Structure (SMILES): Cc1ccc2c(NS(=O)(=O)c3ccccc3Cl)cccc2c1Oc1ncccc1-c1ccnc(N[C@H]2CCCN(CC(F)(F)F)C2)n1

IC50 [1]: > 50000 nM
IC50 [2]: > 10000 nM
IC50 [3]: > 1000 nM
Structure (SMILES): Cc1ccc2c(NS(=O)(=O)c3ccccc3Cl)cccc2c1Oc1ncccc1-c1ccnc(Nc2cn[nH]c2)n1

IC50 [1]: 200 nM
IC50 [2]: 13 nM
IC50 [3]: 3.3 nM
Structure (SMILES): Cc1ccc2c(NS(=O)(=O)C3CCCC3)cccc2c1Oc1ncccc1-c1ccnc(N[C@H]2CCCNC2)n1

IC50 [1]: 310 nM
IC50 [2]: 14 nM
IC50 [3]: 2.1 nM
Structure (SMILES): Cc1cc(NS(=O)(=O)Cc2ccccc2)c(F)cc1Oc1ncccc1-c1ccnc(N[C@H]2CCCNC2)n1
